In patent publication US20250059183A1, “PYRIDINE[4,3-D]PYRIMIDINE COMPOUND AS TLR7/8 AGONIST” (SHANGHAI VISONPHARMA CO., LTD., priority 2021, published 2025):

How the values were obtained:
[1] = molecular target: T1, human TLR8 (Homo sapiens, UniProt Q9NR97); assay: HEK-Blue hTLR8 SEAP reporter gene agonist assay; format: cell-based; conditions: HEK-Blue hTLR8 cells, 16 to 22 hours incubation
T1 construct: host or cells: HEK-Blue hTLR8 (HEK293-derived reporter cells)
T1 sequence (Q9NR97 27-1041): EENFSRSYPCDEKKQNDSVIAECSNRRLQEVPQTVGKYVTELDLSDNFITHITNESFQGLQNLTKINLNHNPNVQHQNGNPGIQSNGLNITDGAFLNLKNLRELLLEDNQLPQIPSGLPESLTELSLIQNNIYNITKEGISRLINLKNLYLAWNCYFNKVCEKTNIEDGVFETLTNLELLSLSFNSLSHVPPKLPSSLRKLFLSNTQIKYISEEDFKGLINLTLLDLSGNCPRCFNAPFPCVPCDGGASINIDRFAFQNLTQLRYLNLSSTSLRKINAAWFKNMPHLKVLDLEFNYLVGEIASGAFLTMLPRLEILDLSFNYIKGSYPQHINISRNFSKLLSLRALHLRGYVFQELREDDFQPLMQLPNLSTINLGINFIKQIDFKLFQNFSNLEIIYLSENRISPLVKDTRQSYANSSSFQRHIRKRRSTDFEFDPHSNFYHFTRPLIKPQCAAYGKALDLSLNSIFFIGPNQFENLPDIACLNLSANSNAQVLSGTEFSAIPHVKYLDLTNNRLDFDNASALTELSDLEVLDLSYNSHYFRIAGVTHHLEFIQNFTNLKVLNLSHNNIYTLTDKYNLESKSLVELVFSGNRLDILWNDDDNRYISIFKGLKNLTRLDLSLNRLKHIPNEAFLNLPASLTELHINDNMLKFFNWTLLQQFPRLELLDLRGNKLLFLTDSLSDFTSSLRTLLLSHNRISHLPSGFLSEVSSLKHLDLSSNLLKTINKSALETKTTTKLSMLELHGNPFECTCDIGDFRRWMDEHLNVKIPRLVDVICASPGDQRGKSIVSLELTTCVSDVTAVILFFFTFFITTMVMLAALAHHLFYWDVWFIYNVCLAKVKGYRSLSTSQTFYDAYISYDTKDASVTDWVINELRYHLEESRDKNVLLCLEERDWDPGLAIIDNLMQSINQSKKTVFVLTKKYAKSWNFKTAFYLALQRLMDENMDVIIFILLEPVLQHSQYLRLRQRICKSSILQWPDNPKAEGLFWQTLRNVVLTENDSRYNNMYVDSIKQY
Method: (§1) HEK-Blue™ cells that stably express human TLR7 or TLR8 are used to evaluate the agonistic activity of the compounds on TLR7 or TLR8, which is determined by the induction of the expression of SEAP reporter gene under the control of minimum IFN-β promoter fusion to 5×NF-κB and AP-1 binding sites. The assay is conducted as below:
(§2) HEK-Blue™ hTLR7 (Invivogen, 80,000 cells per well) or HEK-Blue™ hTLR8 (Invivogen, 60,000 cells per well) were added to the 96-well cell culture plate, followed by adding of the test compound. The final concentration of the test compound in the medium ranged from […], and was incubated for 16 to 22 hours. According to the manufacturer's instructions, the HEK-Blue assay reagent Quanti-blue (Invivogen) was used to measure SEAP levels in cell media. Optical density at 650 nm (OD650) was measured by Neo2 multifunction plate reader (Bio-tek). The half effective concentration (EC50) was calculated using GraphPad Prism.

[2] = molecular target: T2, human TLR7 (Homo sapiens, UniProt Q9NYK1); assay: HEK-Blue hTLR7 SEAP reporter gene agonist assay; format: cell-based; conditions: HEK-Blue hTLR7 cells, 16 to 22 hours incubation
T2 construct: host or cells: HEK-Blue hTLR7 (HEK293-derived reporter cells)
T2 sequence (Q9NYK1 27-1049): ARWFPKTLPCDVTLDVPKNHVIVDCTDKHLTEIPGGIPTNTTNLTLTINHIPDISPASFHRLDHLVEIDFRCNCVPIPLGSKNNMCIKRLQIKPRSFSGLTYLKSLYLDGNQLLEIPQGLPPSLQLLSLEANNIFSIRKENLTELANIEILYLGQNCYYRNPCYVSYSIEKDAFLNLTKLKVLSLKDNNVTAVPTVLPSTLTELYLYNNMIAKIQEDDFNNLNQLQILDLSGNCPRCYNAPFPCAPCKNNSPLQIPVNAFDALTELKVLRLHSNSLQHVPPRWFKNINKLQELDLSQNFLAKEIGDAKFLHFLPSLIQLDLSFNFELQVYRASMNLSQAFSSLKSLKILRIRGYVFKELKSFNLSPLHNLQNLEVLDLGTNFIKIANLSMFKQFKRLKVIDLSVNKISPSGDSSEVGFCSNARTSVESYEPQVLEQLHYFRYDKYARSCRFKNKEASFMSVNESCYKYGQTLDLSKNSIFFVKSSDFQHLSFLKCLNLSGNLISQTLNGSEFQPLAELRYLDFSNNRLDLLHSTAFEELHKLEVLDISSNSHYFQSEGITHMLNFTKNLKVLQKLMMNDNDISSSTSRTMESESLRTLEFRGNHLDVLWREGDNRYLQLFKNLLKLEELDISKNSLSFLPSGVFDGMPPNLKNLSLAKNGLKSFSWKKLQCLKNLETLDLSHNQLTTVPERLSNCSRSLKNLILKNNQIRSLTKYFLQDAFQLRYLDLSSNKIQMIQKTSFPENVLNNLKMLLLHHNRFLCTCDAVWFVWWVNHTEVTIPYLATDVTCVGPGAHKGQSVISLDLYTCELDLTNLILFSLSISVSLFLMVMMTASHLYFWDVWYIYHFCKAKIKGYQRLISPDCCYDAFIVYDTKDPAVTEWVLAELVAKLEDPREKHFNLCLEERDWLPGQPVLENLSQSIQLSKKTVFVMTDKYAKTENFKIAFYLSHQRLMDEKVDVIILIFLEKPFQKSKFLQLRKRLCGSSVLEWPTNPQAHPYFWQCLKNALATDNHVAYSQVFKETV
Method: as §1, §2

CCC[C@@H](CO)Nc1nc(N)nc2ccn(Cc3ccc(CN4CCCC4)cc3)c(=O)c12 [Compound I-127, (S)-2-amino-4-((1-hydroxypentan-2-yl)amino)-6-(4-(pyrrolidin-1-ylmethyl)benzyl)pyrido[4,3-d]pyrimidin-5(6H)-one]
EC50 [1]: 3 nM | EC50 [2]: 44 nM

CCCC(CCC)Nc1nc(N)nc2ccn(Cc3ccc(C(=O)N4CCNCC4)cc3OC)c(=O)c12 [Compound I-132, 2-amino-4-(heptan-4-ylamino)-6-(2-methoxy-4-(piperazine-1-carbonyl)benzyl)pyrido[4,3-d]pyrimidin-5(6H)-one]
EC50 [1]: 660 nM | EC50 [2]: 84 nM

CCC[C@@H](CC)Nc1nc(N)nc2ccn(Cc3ccc(CN4CCCC4)cc3)c(=O)c12 [Compound I-138, (R)-2-amino-4-(hexan-3-ylamino)-6-(4-(pyrrolidin-1-ylmethyl)benzyl)pyrido[4,3-d]pyrimidin-5(6H)-one]
EC50 [1]: 97 nM | EC50 [2]: 58 nM

CCC[C@@H](C)Nc1nc(N)nc2ccn(Cc3ccc(CN(C)CCO)cc3)c(=O)c12 [Compound I-139, (R)-2-amino-6-(4-(((2-hydroxyethyl)(methyl)amino)methyl)benzyl)-4-(pentan-2-ylamino)pyrido[4,3-d]pyrimidin-5(6H)-one]
EC50 [1]: 20 nM | EC50 [2]: 30 nM

CCC[C@@H](C)Nc1nc(N)nc2ccn(Cc3ccc(CN(CCO)CCO)cc3)c(=O)c12 [Compound I-141, (R)-2-amino-6-(4-((bis(2-hydroxyethyl)amino)methyl)benzyl)-4-(pentan-2-ylamino)pyrido[4,3-d]pyrimidin-5(6H)-one]
EC50 [1]: 20 nM | EC50 [2]: 50 nM

CCC[C@@H](CCO)Nc1nc(N)nc2ccn(Cc3ccc(CN4CC5(COC5)C4)cc3)c(=O)c12 [Compound I-142, (S)-6-(4-((2-oxa-6-azaspiro[3.3]heptan-6-yl)methyl)benzyl)-2-amino-4-((1-hydroxyhexan-3-yl)amino)pyrido[4,3-d]pyrimidin-5(6H)-one]
EC50 [1]: 40 nM | EC50 [2]: 70 nM

CCC[C@@H](C)Nc1nc(N)nc2ccn(Cc3ccc(CN4CCN(CCO)CC4)cc3)c(=O)c12 [Compound I-148, (R)-2-amino-6-(4-((4-(2-hydroxyethyl)piperazin-1-yl)methyl)benzyl)-4-(pentan-2-ylamino)pyrido[4,3-d]pyrimidin-5(6H)-one]
EC50 [1]: 40 nM | EC50 [2]: 40 nM

CCC[C@@H](C)Nc1nc(N)nc2ccn(Cc3ccc(CN4CC5(COC5)C4)cc3)c(=O)c12 [Compound I-150, (R)-6-(4-((2-oxa-6-azaspiro[3.3]heptan-6-yl)methyl)benzyl)-2-amino-4-(pentan-2-ylamino)pyrido[4,3-d]pyrimidin-5(6H)-one]
EC50 [1]: 30 nM | EC50 [2]: 40 nM

CCC[C@@H](C)Nc1nc(N)nc2ccn(Cc3ccc(C(=O)N4CC5CC(C4)N5)cc3)c(=O)c12 [Compound I-151, 6-(4-(3,6-diazabicyclo[3.1.1]heptane-3-carbonyl)benzyl)-2-amino-4-(((R)-pentan-2-yl)amino)pyrido[4,3-d]pyrimidin-5(6H)-one]
EC50 [1]: 30 nM | EC50 [2]: 80 nM

CCC[C@@H](C)Nc1nc(N)nc2ccn(Cc3ccc(CN4CCCC4)cc3Cl)c(=O)c12 [Compound I-152, (R)-2-amino-6-(2-chloro-4-(pyrrolidin-1-ylmethyl)benzyl)-4-(pentan-2-ylamino)pyrido[4,3-d]pyrimidin-5(6H)-one]
EC50 [1]: 110 nM | EC50 [2]: 80 nM

CCC[C@@H](C)Nc1nc(N)nc2ccn(Cc3ccc(OCCNC)nc3)c(=O)c12 [Compound I-153, (R)-2-amino-6-((6-(2-(methylamino)ethoxy)pyridin-3-yl)methyl)-4-(pentan-2-ylamino)pyrido[4,3-d]pyrimidin-5(6H)-one]
EC50 [1]: 40 nM | EC50 [2]: 90 nM

CCC[C@@H](C)Nc1nc(N)nc2ccn(Cc3ccc(CN4CCCC4)cc3OC)c(=O)c12 [Compound I-154, (R)-2-amino-6-(2-methoxy-4-(pyrrolidin-1-ylmethyl)benzyl)-4-(pentan-2-ylamino)pyrido[4,3-d]pyrimidin-5(6H)-one]
EC50 [1]: 40 nM | EC50 [2]: 30 nM

CCC[C@@H](CO)Nc1nc(N)nc2ccn(Cc3ccc(CN4CCCC4)cc3OC)c(=O)c12 [Compound I-158, (S)-2-amino-4-((1-hydroxypentan-2-yl)amino)-6-(2-methoxy-4-(pyrrolidin-1-ylmethyl)benzyl)pyrido[4,3-d]pyrimidin-5(6H)-one]
EC50 [1]: 4 nM | EC50 [2]: 10 nM

CCC[C@@H](C)Nc1nc(N)nc2ccn(Cc3ccc(CN(C)CCO)cc3OC)c(=O)c12 [Compound I-160, (R)-2-amino-6-(4-(((2-hydroxyethyl)(methyl)amino)methyl)-2-methoxybenzyl)-4-(pentan-2-ylamino)pyrido[4,3-d]pyrimidin-5(6H)-one]
EC50 [1]: 20 nM | EC50 [2]: 20 nM

CCC[C@@H](C)Nc1nc(N)nc2ccn(Cc3ccc(C(=O)N4C5CNCC4C5)cc3)c(=O)c12 [Compound I-161, 6-(4-(3,6-diazabicyclo[3.1.1]heptane-6-carbonyl)benzyl)-2-amino-4-(((R)-pentan-2-yl)amino)pyrido[4,3-d]pyrimidin-5(6H)-one]
EC50 [1]: 40 nM | EC50 [2]: 110 nM

CCC[C@@H](CO)Nc1nc(N)nc2ccn(Cc3ccc(CN4CCN(C)CC4)cc3OC)c(=O)c12 [Compound I-162, (S)-2-amino-4-((1-hydroxypentan-2-yl)amino)-6-(2-methoxy-4-((4-methylpiperazin-1-yl)methyl)benzyl)pyrido[4,3-d]pyrimidin-5(6H)-one]
EC50 [1]: 10 nM | EC50 [2]: 20 nM

CCC[C@@H](COC)Nc1nc(N)nc2ccn(Cc3ccc(CN4CCCC4)cc3OC)c(=O)c12 [Compound I-163, (S)-2-amino-6-(2-methoxy-4-(pyrrolidin-1-ylmethyl)benzyl)-4-((1-methoxypentan-2-yl)amino)pyrido[4,3-d]pyrimidin-5(6H)-one]
EC50 [1]: 70 nM | EC50 [2]: 30 nM

CCCC[C@@H](CO)Nc1nc(N)nc2ccn(Cc3ccc(CN4CCCC4)cc3OC)c(=O)c12 [Compound I-164, (S)-2-amino-4-((1-hydroxyhexan-2-yl)amino)-6-(2-methoxy-4-(pyrrolidin-1-ylmethyl)benzyl)pyrido[4,3-d]pyrimidin-5(6H)-one]
EC50 [1]: 30 nM | EC50 [2]: 40 nM
